Test results reported in patent US9340577B2, “HLA binding motifs and peptides and their uses” (priority 1992, dated 2016).
No end group written: not given here.

How the values were obtained:
Test in all cases: biochemical
DRB1*1201 = DRB1*1201 (Homo sapiens, UniProt P01903+P01911, A100R/A169T/D57E/D86V/F55L/H45Y/K41T/L162R/M171V/P40S/Q125H/Q178H/Q39Y/Q99D/R42G/S66L/T262R/V114A/V67L/W38E/Y59H/Y61H/Y89S); assay type: binding
DRB1*1101 = DRB1*1101 (Homo sapiens, UniProt P01903+P01911, A100R/A169T/A87E/I96F/K41T/L162R/M171V/P40S/Q125H/Q178H/Q39Y/Q99D/R42S/S66Y/T262R/V115G/W38E); settings: Binding affinity DRB1 *1101
DRB1*0405 = DRB1*0405 (Homo sapiens, UniProt P01903+P01911, A100R/A169T/D86S/F76Y/I96L/K127E/L162R/M171V/N62H/P40V/Q125Y/R42H/S133A/S149N/S66Y/V115G/V209L/W38E); assay type: binding
DRB4*0101 = DRB4*0101 (Homo sapiens, UniProt P01903+P13762, G164S); assay type: binding
DRB1*0901 = DRB1*0901 (Homo sapiens, UniProt P01903+P01911, A100R/A103E/D57H/D86V/F55Y/F60I/F76Y/I96F/K127E/L162R/M171V/P40D/Q125H/Q99R/R33Q/R42F/S133A/S66N/T210M/V115G/W38K/Y107V/Y59G/Y89S); assay type: binding
DRB1*1501 = DRB1*1501 (Homo sapiens, UniProt P01903+P01911); assay type: binding
DR7 (DRB1*0701) = DR7 (DRB1*0701) (Homo sapiens, UniProt P01903+P01911, A100R/A102G/A103Q/D57E/D86V/E43K/F76Y/K127E/L162R/M171V/P40G/Q125H/Q99D/R33Q/R42Y/R54Q/S133A/S66F/T210M/V115G/Y107V/Y59L/Y89S); assay type: binding
DR4w4 (DRB1*0401) = DR4w4 (DRB1*0401) (Homo sapiens, UniProt P01903+P01911, A100K/A169T/F76Y/I96L/K127E/L162R/M171V/N62H/P40V/Q125Y/R42H/S133A/S149N/S66Y/V115G/V209L/W38E); assay type: binding
DR1 (DRB1*0101) = DR1 (DRB1*0101) (Homo sapiens, UniProt P01903+P01911, A100R/D57E/F55L/F60I/F76Y/I96L/L162R/M171V/P40L/Q125E/R42F/V115G/Y59C); assay type: binding
DRB5*0101 = DRB5*0101 (Homo sapiens, UniProt P01903+Q30154); settings: Binding affinity DRB5 *0101
DRB1*0802 = DRB1*0802 (Homo sapiens, UniProt P01903+P01911, A100R/A103L/A169T/F76Y/H45Y/I96F/K41T/L162R/M171V/P40S/Q125H/Q178H/Q39Y/Q99D/R218S/R42G/S66Y/V115G/W38E); assay type: binding
DRB1*1302 = DRB1*1302 (Homo sapiens, UniProt P01903+P01911, A100E/A169T/K41T/L162R/M171V/P40S/Q125H/Q178H/Q39Y/Q99D/R42S/S66N/T262R/V115G/W38E/Y61H); assay type: binding
DRB1*1302, sequence (P01903 26-254 limits assumed, other chains not shown): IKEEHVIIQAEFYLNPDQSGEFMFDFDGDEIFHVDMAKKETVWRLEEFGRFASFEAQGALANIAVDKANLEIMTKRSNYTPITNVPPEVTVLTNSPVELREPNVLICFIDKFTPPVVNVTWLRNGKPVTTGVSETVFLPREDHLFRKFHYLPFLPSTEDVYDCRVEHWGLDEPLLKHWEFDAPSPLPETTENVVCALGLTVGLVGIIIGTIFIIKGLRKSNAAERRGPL

DRB1*1101, sequence (P01903 26-254 limits assumed, other chains not shown): as above

Molecule: CSCC[C@H](NC(=O)[C@H](CC(C)C)NC(=O)[C@H](CC(=O)O)NC(=O)[C@@H](N)Cc1c[nH]cn1)C(=O)N[C@@H](CC(C)C)C(=O)N[C@@H](CC(C)C)C(=O)N[C@@H](CCCNC(=N)N)C(=O)N[C@@H](CC(C)C)C(=O)N[C@@H](CO)C(=O)N[C@@H](CCC(=O)O)C(=O)N1CCC[C@H]1C(=O)N[C@@H](C)C(=O)N[C@@H](CCC(=O)O)C(=O)N[C@@H](CC(C)C)C(=O)N[C@H](C(=O)O)[C@@H](C)O [Peptide 68.0073]
- IC50 (DRB1*1201): 0.52 µM

Molecule: LRMMNDQLMFLERAF [Peptide 68.0131]
- IC50 (DRB1*1201): 0.28 µM

Molecule: CC[C@H](C)[C@H](NC(=O)[C@H](CS)NC(=O)[C@H](Cc1c[nH]cn1)NC(=O)[C@H](C)NC(=O)[C@H](C)NC(=O)[C@@H](NC(=O)[C@H](CC(C)C)NC(=O)[C@@H](NC(=O)[C@H](Cc1c[nH]c2ccccc12)NC(=O)[C@H](CCC(N)=O)NC(=O)[C@@H]1CCCN1C(=O)[C@@H](N)Cc1c[nH]cn1)C(C)C)[C@@H](C)O)C(=O)N[C@@H](CCCNC(=N)N)C(=O)N[C@@H](CC(N)=O)C(=O)N[C@@H](CCCCN)C(=O)O [Peptide 68.0064]
- IC50 (DRB1*1201): 5.79 µM

Molecule: NSRLLQERGVAYINA [Peptide 68.0176]
- IC50 (DRB1*1201): 0.62 µM

Molecule: CC[C@H](C)[C@H](NC(=O)[C@H](CCC(N)=O)NC(=O)[C@@H](NC(=O)[C@H](Cc1ccccc1)NC(=O)[C@H](CC(N)=O)NC(=O)[C@H](Cc1ccc(O)cc1)NC(=O)[C@H](CC(C)C)NC(=O)[C@H](Cc1ccccc1)NC(=O)[C@@H](N)CCCCN)[C@@H](C)O)C(=O)N1CCC[C@H]1C(=O)N[C@@H](Cc1c[nH]cn1)C(=O)N[C@@H](CC(C)C)C(=O)N[C@@H](C)C(=O)NCC(=O)N[C@H](C(=O)O)[C@@H](C)O [Peptide 68.0087]
- IC50 (DRB1*1201): 1.24 µM

Molecule: CC(C)C[C@H](NC(=O)[C@H](CCC(=O)O)NC(=O)[C@H](CCCCN)NC(=O)[C@H](C)N)C(=O)N[C@@H](CCCCN)C(=O)N[C@@H](Cc1ccccc1)C(=O)N[C@H](C(=O)N[C@H](C(=O)N[C@@H](CC(C)C)C(=O)N[C@H](C(=O)N[C@@H](Cc1ccccc1)C(=O)N[C@@H](CCCNC(=N)N)C(=O)N[C@@H](Cc1c[nH]cn1)C(=O)NCC(=O)N[C@@H](CC(=O)O)C(=O)O)C(C)C)[C@@H](C)O)C(C)C [68,0025]
- IC50 (DRB1*1201): 0.693 µM

Molecule: GAAVVHEIVRSFGTL [Peptide 68.0173]
- IC50 (DRB1*1201): 0.517 µM

Molecule: CSCC[C@H](NC(=O)[C@H](CC(C)C)NC(=O)[C@H](CCC(N)=O)NC(=O)[C@H](CC(=O)O)NC(=O)[C@H](CC(N)=O)NC(=O)[C@H](CCSC)NC(=O)[C@H](CCSC)NC(=O)[C@H](CCCNC(=N)N)NC(=O)[C@H](CC(C)C)NC(=O)[C@@H](N)C(C)C)C(=O)N[C@@H](Cc1ccccc1)C(=O)N[C@@H](CC(C)C)C(=O)N[C@@H](CCC(=O)O)C(=O)N[C@@H](CCCNC(=N)N)C(=O)N[C@@H](C)C(=O)O [Peptide 68.0130]
- IC50 (DRB1*1201): 0.098 µM

Molecule: CC[C@H](C)[C@H](NC(=O)[C@H](Cc1ccccc1)NC(=O)[C@H](C)NC(=O)[C@H](CCCNC(=N)N)NC(=O)[C@H](CCC(=O)O)NC(=O)[C@H](CC(C)C)NC(=O)[C@H](Cc1ccccc1)NC(=O)[C@H](CCSC)NC(=O)[C@H](CC(C)C)NC(=O)[C@H](CCC(N)=O)NC(=O)[C@@H](N)CC(=O)O)C(=O)N[C@@H](CC(=O)O)C(=O)N1CCC[C@H]1C(=O)N[C@@H](CC(C)C)C(=O)NCC(=O)O [Peptide 68.0181]
- IC50 (DRB1*1201): 0.146 µM

Molecule: EVHVGGQVIVCPASV [Peptide 90.0015]
- IC50 (DRB1*1101): > 20 µM
- IC50 (DRB1*0405): 6.78 µM
- IC50 (DRB4*0101): 0.389 µM
- IC50 (DRB1*0901): 2.6 µM
- IC50 (DRB1*1501): > 20 µM
- IC50 (DR7 (DRB1*0701)): 0.187 µM
- IC50 (DR4w4 (DRB1*0401)): 2.1 µM
- IC50 (DR1 (DRB1*0101)): 4.09 µM
- IC50 (DRB5*0101): > 20 µM
- IC50 (DRB1*0802): > 20 µM
- IC50 (DRB1*1302): 0.152 µM
